{"source": "patent US3987167A", "about": "“Antibiotic 20,798 R.P” (Rhone-Poulenc S.A., priority 1968, dated 1976)", "key": {"[1]": {"system": "acute lymphoblastic and myeloblastic leucaemias", "experiment": "Activity in human therapy", "format": "in vivo", "conditions": "intravenous, daily doses between 0.1 and 2 mg./kg., adult", "protocol": "In human therapy 20,798 R.P. is active, particularly against acute lymphoblastic and myeloblastic leucaemias, when administered intravenously at daily doses of between 0.1 and 2 mg./kg. for an adult; a composition for injection for example, consists of a solution of 0.1 mg./cc. of active substance in physiological serum."}, "[2]": {"experiment": "Stability to acid treatment of the fermentation broth", "format": "physicochemical", "conditions": "10° to 75° C., 48 hours to 30 minutes", "protocol": "When desired, the fermentation broth can, before the extraction procedures, be treated with an acid at a temperature between 10° and 75° C. for a period of from 48 hours to 30 minutes, the length of time varying inversely with the temperature, so as to enrich the antibiotic 9865 R.P. with daunorubicin. […] For acidification of the fermentation broth inorganic acids (hydrochloric, phosphoric or sulphuric acid) or organic acids (acetic or oxalic acid etc.) are suitable at various concentrations, but preferably hydrochloric acid or oxalic acid is used at concentrations of between 0.01N and 1N. The hydrolysis is preferably carried out for a period of from 15 hours to 1 hour at a temperature of from 20 C. to 50° C., the length of time varying inversely with the temperature."}, "[3]": {"system": "sarcoma 180", "experiment": "Anti-tumour activity in mice, sarcoma 180", "conditions": "graftable tumours of mice, solid form of sarcoma 180"}, "[4]": {"system": "leucaemia L1210", "experiment": "Anti-tumour activity in mice, leucaemia L1210", "conditions": "graftable tumours of mice, leucaemia L 1210"}}}
{"smiles": "COc1cccc2c1C(=O)c1c(O)c3c(c(O)c1C2=O)CC(O)(C(C)O)CC3OC1CC(N)C(O)C(C)O1", "note": "(stereo not shown) [20,798 R.P.]", "values": [{"measurement": "activity in human therapy", "setting": "[1]", "result": "active"}, {"measurement": "hydrolysis on acid treatment", "setting": "[2]", "result": "not hydrolysed"}, {"measurement": "anti-tumour activity", "setting": "[3]", "result": "particularly active"}, {"measurement": "anti-tumour activity", "setting": "[4]", "result": "particularly active"}]}
